In patent US7709486B2, “CXCR4 antagonists” (Genzyme Corporation, priority 1998, dated 2010):

System: collagen-induced arthritis (CIA)
Description: The experiments were performed in 8- to 12-week old mice, but in each experiment, the mutant and wild-type mice were age-matched with a 5 day limit. The male to female ratio was kept between 0.8 and 1.3 in each experimental group.
Native chicken collagen type II (EPC, Owensvillle, Mo.) was dissolved in 0.05 M acetic acid at 2 mg/ml by stirring overnight at 6° C., and emulsified in an equal volume of incomplete (IFA) or complete Freund's adjuvant (CFA) containing 1.5 mg/ml heat killed Mycobacterium butyricum (Difco, Detroit, Mich.). Mice were sensitized with a single 100 μl intradermal injection of the emulsion at the base of the tail. Mice were examined daily for signs of arthritis. The disease severity was recorded following a scoring system for each limb. Score 0: normal; score 1: redness and/or swelling in one joint; score 2: redness and/or swelling in more than one joint; score 3: redness and/or welling in the entire paw; score 4: deformity and/or ankylosis.
Spleens and fore and hind limbs were fixed in buffered saline—B5fixative (10% formalin with quicksilver). […] Limbs were subsequently decalcified overnight with formic acid. […] Severity of arthritis was evaluated using three parameters: infiltration of mono- and polymorphonuclear cells, hyperplasia of the synovium and parmus formation. Each parameter was scored on a scale from 0 to 3 (absent; weak, moderate and severe).

c1cc(CN2CCCNCCNCCCNCC2)ccc1CN1CCCNCCNCCCNCC1 [AMD3100, 1,1′-[1,4-phenylenebis(methylene)]bis-1,4,8,11-tetraazacyclotetradecane]
Body weight loss compared with control animals (collagen-injected mice, treated): did not demonstrate any significant body weight loss
Time until the single affected treated animal developed arthritic pathology (post-treatment): > 20 days
